Laboratory results from US20250171438A1 (Agios Pharmaceuticals, Inc., priority 2022, published 2025).

Each compound was assayed against T1, human PAH with the R408W mutation (Homo sapiens, UniProt P00439, R408W) (assay: Cell Based Phenylalanine Flux Assay). Settings: A375 cells expressing human R408W PAH; 24 hrs with compound; 13C-Tyrosine by LC-MS; average where tested multiple times; read-out: AC50.
T1 construct: expressed in transfected cells
T1 sequence (P00439 1-452 R408W): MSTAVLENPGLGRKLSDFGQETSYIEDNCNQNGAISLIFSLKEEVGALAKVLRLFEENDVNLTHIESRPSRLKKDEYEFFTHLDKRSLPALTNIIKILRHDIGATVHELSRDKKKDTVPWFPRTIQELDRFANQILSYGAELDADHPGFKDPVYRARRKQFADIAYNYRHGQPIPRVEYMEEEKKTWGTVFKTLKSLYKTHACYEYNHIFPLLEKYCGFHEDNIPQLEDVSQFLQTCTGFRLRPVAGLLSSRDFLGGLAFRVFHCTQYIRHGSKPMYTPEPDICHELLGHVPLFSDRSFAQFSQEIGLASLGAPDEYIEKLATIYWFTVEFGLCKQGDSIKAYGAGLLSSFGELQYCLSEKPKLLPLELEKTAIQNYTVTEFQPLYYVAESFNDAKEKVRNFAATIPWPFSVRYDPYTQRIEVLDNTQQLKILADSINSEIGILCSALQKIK

AC50 [µM] | SMILES
> 5 | O=C(Cc1nc(C(F)(F)F)cs1)N1CCc2[nH]cnc2C1c1nc2ccc(Cl)cc2[nH]1 (stereo not drawn) [listing 1 of 2 here]
> 5 | O=C(Cc1nccs1)N1CCc2[nH]cnc2C1c1nc2ccc(Cl)cc2[nH]1 (stereo not drawn) [listing 1 of 2 here]
> 5 | O=C(Cc1nc(C(F)(F)F)cs1)N1CCc2[nH]cnc2C1c1nc2ccc(F)cc2[nH]1 (stereo not drawn) [listing 1 of 2 here]
> 5 | O=C(c1cnn2c(Br)cccc12)N1CCc2[nH]cnc2C1c1nc2ccc(Br)cc2[nH]1 (stereo not drawn) [listing 1 of 2 here]
> 5 | O=C(c1cnn2cc(Br)ccc12)N1CCc2[nH]cnc2C1c1nc2ccc(Br)cc2[nH]1 (stereo not drawn) [listing 1 of 2 here]
> 5 | COc1ccn2ncc(C(=O)N3CCc4[nH]cnc4C3c3nc4ccc(Cl)cc4[nH]3)c2c1 (stereo not drawn) [listing 1 of 2 here]
> 5 | O=C(c1cnn2ccccc12)N1CCc2[nH]cnc2C1c1nc2ccc(F)cc2[nH]1 (stereo not drawn) [listing 1 of 2 here]
> 5 | O=C(c1cnn2cc(Br)ccc12)N1CCc2[nH]cnc2C1c1nc2ccc(Cl)cc2[nH]1 (stereo not drawn) [listing 1 of 2 here]
> 5 | O=C(c1cnn2c(Br)cccc12)N1CCc2[nH]cnc2C1c1nc2ccc(Cl)cc2[nH]1 (stereo not drawn) [listing 1 of 2 here]
> 5 | O=C(C1CC1)N1CCc2[nH]cnc2C1c1nc2ccc(F)cc2[nH]1 (stereo not drawn) [listing 1 of 2 here]
1 to 5 | O=C(Cc1nc(C(F)(F)F)cs1)N1CCc2[nH]cnc2C1c1nc2ccc(Cl)cc2[nH]1 (stereo not drawn) [listing 2 of 2 here]
1 to 5 | O=C(Cc1nccs1)N1CCc2[nH]cnc2C1c1nc2ccc(Cl)cc2[nH]1 (stereo not drawn) [listing 2 of 2 here]
1 to 5 | O=C(Cc1nc(C(F)(F)F)cs1)N1CCc2[nH]cnc2C1c1nc2ccc(F)cc2[nH]1 (stereo not drawn) [listing 2 of 2 here]
> 5 | Clc1ccc2nc(C3c4nc[nH]c4CCN3Cc3nccs3)[nH]c2c1 (stereo not drawn)
> 5 | c1ccc2[nH]c(C3c4nc[nH]c4CCN3Cc3cncs3)nc2c1 (stereo not drawn)
1 to 5 | COc1ccn2ncc(C(=O)N3CCc4[nH]cnc4C3c3nc4ccc(Br)cc4[nH]3)c2c1 (stereo not drawn) [listing 2 of 2 here]
> 5 | O=C(c1cnn2cccc(F)c12)N1CCc2[nH]cnc2C1c1nc2ccc(Br)cc2[nH]1 (stereo not drawn)
> 5 | O=C(c1cnn2cccc(F)c12)N1CCc2[nH]cnc2C1c1nc2ccc(Cl)cc2[nH]1 (stereo not drawn)
> 5 | O=C(c1cnn2cc(Cl)ccc12)N1CCc2[nH]cnc2C1c1nc2ccc(Cl)cc2[nH]1 (stereo not drawn)
1 to 5 | O=C(c1cncs1)N1CCc2[nH]cnc2C1c1nc2ccc(Cl)cc2[nH]1 (stereo not drawn) [listing 2 of 2 here]
> 5 | O=C(c1ncn2ccccc12)N1CCc2[nH]cnc2C1c1nc2ccc(Cl)cc2[nH]1 (stereo not drawn)
1 to 5 | O=C(c1cnn2ccccc12)N1CCc2[nH]cnc2C1c1nc2ccc(F)cc2[nH]1 (stereo not drawn) [listing 2 of 2 here]
1 to 5 | O=C(c1cnn2cc(Br)ccc12)N1CCc2[nH]cnc2C1c1nc2ccc(Cl)cc2[nH]1 (stereo not drawn) [listing 2 of 2 here]

Further lines, the compound ahead of its results:

SMILES | AC50 [µM]
O=C(Cc1nc(C(F)(F)F)cs1)N1CCc2[nH]cnc2C1c1nc2ccc(Br)cc2[nH]1 (stereo not drawn) [listing 1 of 2 here] | > 5
O=C(Cc1nccs1)N1CCc2[nH]cnc2C1c1nc2ccc(F)cc2[nH]1 (stereo not drawn) [listing 1 of 2 here] | > 5
Cc1nnc(C(=O)N2CCc3[nH]cnc3C2c2nc3cc(Br)ccc3[nH]2)s1 (stereo not drawn) | > 5
COc1ccn2ncc(C(=O)N3CCc4[nH]cnc4C3c3nc4ccc(Br)cc4[nH]3)c2c1 (stereo not drawn) [listing 1 of 2 here] | > 5
O=C(c1cncs1)N1CCc2[nH]cnc2C1c1nc2ccc(Cl)cc2[nH]1 (stereo not drawn) [listing 1 of 2 here] | > 5
O=C(c1nccs1)N1CCc2[nH]cnc2C1c1nc2ccc(F)cc2[nH]1 (stereo not drawn) | > 5
O=C(c1nc2ccccc2s1)N1CCc2[nH]cnc2C1c1nc2ccc(F)cc2[nH]1 (stereo not drawn) [listing 1 of 2 here] | > 5
O=C(Cc1nc(C(F)(F)F)cs1)N1CCc2[nH]cnc2C1c1nc2ccc(Br)cc2[nH]1 (stereo not drawn) [listing 2 of 2 here] | 1 to 5
Cc1nnc(CCC(=O)N2CCc3[nH]cnc3C2c2nc3ccc(F)cc3[nH]2)s1 (stereo not drawn) | > 5
O=C(Cc1nccs1)N1CCc2[nH]cnc2C1c1nc2ccc(F)cc2[nH]1 (stereo not drawn) [listing 2 of 2 here] | 1 to 5
O=C(c1cnn2cc(Br)ccc12)N1CCc2[nH]cnc2C1c1nc2ccc(Br)cc2[nH]1 (stereo not drawn) [listing 2 of 2 here] | 1 to 5
O=C(c1cnn2c(Br)cccc12)N1CCc2[nH]cnc2C1c1nc2ccc(Br)cc2[nH]1 (stereo not drawn) [listing 2 of 2 here] | 1 to 5
COc1ccn2ncc(C(=O)N3CCc4[nH]cnc4C3c3nc4ccc(Cl)cc4[nH]3)c2c1 (stereo not drawn) [listing 2 of 2 here] | 1 to 5
O=C(c1cnn2c(Br)cccc12)N1CCc2[nH]cnc2C1c1nc2ccc(Cl)cc2[nH]1 (stereo not drawn) [listing 2 of 2 here] | 1 to 5
O=C(c1nc2ccccc2s1)N1CCc2[nH]cnc2C1c1nc2ccc(F)cc2[nH]1 (stereo not drawn) [listing 2 of 2 here] | 1 to 5
O=C(C1CC1)N1CCc2[nH]cnc2C1c1nc2ccc(F)cc2[nH]1 (stereo not drawn) [listing 2 of 2 here] | 1 to 5
